Data from patent US11497212B2, “Substituted thiophenyl uracils, salts thereof and the use thereof as herbicidal agents” (Syngenta Crop Protection AG, priority 2017, dated 2022).

Tests used:
Assay type in all cases: in vivo
Glycine max = assay: Crop compatibility post-emergence (greenhouse pot trial)
Summary of the method: (§1)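 Crop seeds sown in sandy loam and grown in the greenhouse 2 to 3 weeks were treated at the one-leaf stage. WP or EC formulations were sprayed as aqueous suspension/emulsion with 0.5% additive at 600 L/ha. Damage was scored visually about 3 weeks later versus untreated controls (0% = like control, 100% = dead).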

Oryza sativa = assay: as above; details: application rate 20 g/ha
Summary of the method: as §1

Triticum aestivum = assay: as above
Summary of the method: as §1

Zea mays = assay: as above
Summary of the method: as §1

Echinochloa crus-galli = assay: Herbicidal action post-emergence (greenhouse pot trial); details: application rate 20 g/ha, scored visually after about 3 weeks vs untreated controls
Summary of the method: (§2)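 Sowing in sandy loam, then 2–3 weeks of controlled greenhouse growth. Next, one-leaf-stage plants received a foliar spray of the WP- or EC-formulated compound with 0.5% additive (600 L/ha water, application rate of 80 g/ha or below). Finally, after about 3 weeks under optimal conditions, effect was judged by eye against controls.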

Veronica persica = assay: as above; details: application rate 20 g/ha
Summary of the method: as §2

Abutilon theophrasti = assay: as above; details: application rate 20 g/ha, scored visually after about 3 weeks vs untreated controls
Summary of the method: as §2

Amaranthus retroflexus = assay: as above; details: application rate 20 g/ha, scored visually after about 3 weeks vs untreated controls
Summary of the method: as §2

Pharbitis purpurea = assay: as above; details: application rate 20 g/ha
Summary of the method: as §2

Polygonum convolvulus = assay: as above; details: application rate 20 g/ha, scored visually after about 3 weeks vs untreated controls
Summary of the method: as §2

Setaria viridis = assay: as above; details: application rate 20 g/ha, scored visually after about 3 weeks vs untreated controls
Summary of the method: as §2

Matricaria inodora = assay: as above; details: application rate 20 g/ha, scored visually after about 3 weeks vs untreated controls
Summary of the method: as §2

Alopecurus myosuroides = assay: as above; details: application rate 20 g/ha, scored visually after about 3 weeks vs untreated controls
Summary of the method: as §2

Viola tricolor = assay: as above; details: application rate 20 g/ha
Summary of the method: as §2

Stellaria media = assay: as above; details: application rate 20 g/ha, scored visually after about 3 weeks vs untreated controls
Summary of the method: as §2

SMILES | Glycine max (Efficacy in %) (Glycine max; application rate 5 g/ha) | Oryza sativa (Efficacy in %) (Oryza sativa) | Triticum aestivum (Efficacy in %) (Triticum aestivum; application rate 5 g/ha) | Zea mays (Efficacy in %) (Zea mays; application rate 5 g/ha) | Echinochloa crus-galli (Efficacy in %) (Echinochloa crus-galli) | Veronica persica (Efficacy in %) (Veronica persica) | Abutilon theophrasti (Efficacy in %) (Abutilon theophrasti) | Amaranthus retroflexus (Efficacy in %) (Amaranthus retroflexus) | Pharbitis purpurea (Efficacy in %) (Pharbitis purpurea) | Polygonum convolvulus (Efficacy in %) (Polygonum convolvulus) | Setaria viridis (Efficacy in %) (Setaria viridis) | Matricaria inodora (Efficacy in %) (Matricaria inodora) | Alopecurus myosuroides (Efficacy in %) (Alopecurus myosuroides) | Viola tricolor (Efficacy in %) (Viola tricolor) | Stellaria media (Efficacy in %) (Stellaria media) | Glycine max (Efficacy in %) (Glycine max; application rate 20 g/ha) | Triticum aestivum (Efficacy in %) (Triticum aestivum; application rate 20 g/ha) | Zea mays (Efficacy in %) (Zea mays; application rate 20 g/ha)
CCC(Sc1cc(-n2c(=O)c(C)c(C(F)(F)F)n(C)c2=O)c(F)cc1Cl)C(=O)OCC1CCCCO1 (stereo not shown) [I.12-91] | 0% | 0% | 0% | 0% | 100% | 100% | 100% | 100% | 100% | 80% | 80% | 80% | 80% | 100% | 100% |  |  | 
Cc1c(C(F)(F)F)n(C)c(=O)n(-c2cc(SC(CC(C)C)C(=O)OCC3CCCO3)c(Cl)cc2F)c1=O (stereo not shown) [I.14-71] |  | 0% |  |  |  | 100% | 100% | 100% | 100% |  |  |  |  |  |  | 0% | 0% | 0%
Cc1c(C(F)(F)F)n(C)c(=O)n(-c2cc(SC(CC(C)C)C(=O)OCC3CCOC3)c(Cl)cc2F)c1=O (stereo not shown) [I.14-72] |  | 0% |  |  |  | 100% | 80% | 100% | 80% | 80% | 100% | 80% |  | 100% |  | 20% | 20% | 
Cc1c(C(F)(F)F)n(C)c(=O)n(-c2cc(SC(CC(C)C)C(=O)OCC3CCCCO3)c(Cl)cc2F)c1=O (stereo not shown) [I.14-91] |  | 0% |  |  |  | 100% | 100% | 100% | 80% |  |  |  |  | 100% |  | 20% | 20% | 20%
